According to article PMC6753678, “Fueling Open Innovation for Malaria Transmission-Blocking Drugs: Hundreds of Molecules Targeting Early Parasite Mosquito Stages” (Frontiers in Microbiology, 2019):
Like-named read-outs stand apart in the source and are kept apart here.

Key:
HepG2 cells [1] = assay: HepG2 cytotoxicity assay
Procedure, shortened: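 Here viability after a 48 h compound incubation (37°C, humidified 5% CO2) is measured by fluorescence and expressed as percent inhibition, with doxorubicin at 50 μM and DMSO as the bounding controls.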

[2] = test system: P. falciparum late stage (stages IV-V) gametocytes; design: method as in Almela et al 2016; settings: ref Almela et al 2016, read-out: Pf GCT ATP IC50, cited from earlier work
HepG2 cells [3] = settings: ref Almela et al 2016, cited from earlier work; for HepG2 cytoxicity (Pf GCT ATP screen): HepG2 value reported with Pf GCT ATP screen
[4] = test system: P. falciparum late stage (stages IV-V) gametocytes; assay: P. falciparum late stage gametocyte ATP depletion assay (Pf GC-ATP); settings: 1: YES, 0: NO
[5] = HepG2 cytotoxicity unified across screens, bounds (>) given as plain numbers
[6] = unified HepG2 value across the three screens
[7] = P. falciparum late stage gametocyte ATP assay
[8] = HepG2 data listed with Pf GCT ATP screen
[9] = HepG2 cytotoxicity unified across screens, >25 set to 25.00
[10] = P. falciparum late stage gametocyte ATP assay, TCAMS screen
[11] = reported with the Pf GCT ATP screen
[12] = >10-fold selectivity over cytotoxicity

Compound	Unified cytotox (HepG2 cells [1]; [5])	IC50 ([2]; TCAMS library screen)	HepG2 cytoxicity (Pf GCT ATP screen) (HepG2 cells [3])	Is compound selective in assay? Pf GC-ATP active? [4]	Unified cytotox (HepG2 cells [1]; [6])	IC50 [2, 7]	HepG2 cytoxicity (HepG2 cells [3]; [8])	further results
Cl.N=c1n(Cc2ccc(Cl)cc2)c2ccccc2n1CC(O)c1ccc(Cl)c(Cl)c1 (centres unmarked) [TCMDC-123813]	6.50 µM	360 nM	6.5 µM	1 (1: YES)				
COc1ccc(C[C@H](N)C(=O)N[C@H]2[C@@H](O)[C@H](n3cnc4c(N(C)C)ncnc43)O[C@@H]2CO)cc1.Cl [TCMDC-123927]	2.69 µM	650 nM	2.69 µM	0 (0: NO)				
Cl.N=c1n(CCN2CCCCC2)c2ccccc2n1CC(O)c1ccc(Cl)c(Cl)c1 (centres unmarked) [TCMDC-124064]	5.20 µM	3270 nM	5.2 µM	0 (0: NO)				
CCCCCCCn1c(=N)n(CC(O)c2ccc(Cl)c(Cl)c2)c2ccccc21.Cl (centres unmarked) [TCMDC-124065]	6.00 µM	2020 nM	6 µM	0 (0: NO)				
CCCCOc1ccc(C(=O)C(CCC(CNC(C)(C)C)C(=O)c2ccc(OCCCC)cc2)CNC(C)(C)C)cc1.Cl (centres unmarked) [TCMDC-124120]	3.10 µM	300 nM	3.1 µM	1 (1: YES)				
CCCCCOc1ccc(C(O)C(CCC(CN2CCCCCC2)C(O)c2ccc(OCCCCC)cc2)CN2CCCCCC2)cc1.Cl (centres unmarked) [TCMDC-124174]	6.80 µM	1200 nM	6.8 µM	0 (0: NO)				
Oc1c(C(Nc2nc3ccccc3s2)c2ccc(OC(F)F)cc2)ccc2cccnc12 (centres unmarked) [TCMDC-124379]	24.10 µM	440 nM	24.1 µM	1 (1: YES)				
O=C(O)C(=O)O.Oc1c(CN2CCC(Cc3ccccc3)CC2)cc(Cl)c2cccnc12 [TCMDC-124594]	9.60 µM	600 nM	9.6 µM	1 (1: YES)				
Cc1ccc(-n2nc(-c3ccccc3)c3cc(C(=O)NCCN)sc32)cc1 [TCMDC-124776]	7.83 µM	1110 nM	7.83 µM	0 (0: NO)				
COc1ccccc1-c1cccc(-c2cccc(NC(=O)c3ccc([N+](=O)[O-])o3)c2)n1 [TCMDC-124800]	11.47 µM	1660 nM	11.47 µM	0 (0: NO)				
O=C(Nc1cccc(-c2cccc(-c3ccc(F)cc3)n2)c1)c1ccc([N+](=O)[O-])o1 [TCMDC-124807]				0 (0: NO)	6.94 µM	1530 nM	6.94 µM	
Cc1cc(Nc2ccncc2)n2nc(C)c(-c3ccccc3Cl)c2n1 [TCMDC-124918]				1 (1: YES)		1940 nM	>25 µM	
Cc1nn(CC(C)C)c2sc(C(=O)N3CCN(S(=O)(=O)c4ccc(C#N)cc4)CC3)cc12 [TCMDC-125045]				1 (1: YES)		2090 nM	>25 µM	
COc1ccc(NC(=O)C2c3ccccc3C(=O)N(CC(C)C)C2c2cccs2)cc1OC (centres unmarked) [TCMDC-125289]				1 (1: YES)		430 nM	>25 µM	
CCN(CC)CCCOC(=O)c1ccc2c(c1)-c1ccc(C(=O)OCCCN(CC)CC)c3cccc-2c13.Cl [TCMDC-125491]				1 (1: YES)	20.00 µM	140 nM	20 µM	
CC(C)c1ccc(NC(=S)NN=Cc2ccccn2)cc1 [TCMDC-125520]				1 (1: YES)	12.80 µM	10 nM	12.8 µM	

Compound	Unified cytotox (HepG2 cells [1]; [5])	IC50 ([2]; TCAMS library screen)	HepG2 cytoxicity (Pf GCT ATP screen) (HepG2 cells [3])	Is compound selective in assay? Pf GC-ATP active? [4]	Unified cytotox (HepG2 cells [1]; [6])	IC50 [2, 7]	HepG2 cytoxicity (HepG2 cells [3]; [8])	further results
COc1cccc(C(=O)NC(C=Cc2ccccc2)c2cc(Cl)c3cccnc3c2O)c1 (centres unmarked) [TCMDC-125550]				1 (1: YES)		590 nM	>25 µM	
O=[N+]([O-])c1ccc(C=NNc2nc(Nc3ccccc3)nc(Nc3ccccc3)n2)o1 [TCMDC-125802]				1 (1: YES)	14.82 µM	1310 nM	14.82 µM	
Cc1cccnc1Nc1nc(-c2ccccn2)cs1 [TCMDC-125846]				1 (1: YES)	3.02 µM	100 nM	3.02 µM	
COc1cccc(CCNCCCCCCNCCc2ccc(Cl)cc2)c1.Cl [TCMDC-131284]				1 (1: YES)	6.10 µM	530 nM	6.1 µM	
CCNC1=NC2=C(CC(C(C)(C)C)CC2)C2(CCC(C(C)(C)C)CC2)S1.Cl (centres unmarked) [TCMDC-131288]				0 (0: NO)	14.30 µM	3000 nM	14.3 µM	
CCN(CC)/C(=N\CCCCCC/N=C(\NC(=N)c1ccc(Cl)cc1)N(CC)CC)NC(=N)c1ccc(Cl)cc1 [TCMDC-131806]				1 (1: YES)	43.60 µM	840 nM	43.6 µM	
CCN(CC)/C(=N\C(=N)NCCCCCCNC(=N)/N=C(\Nc1ccc(Cl)cc1)N(CC)CC)Nc1ccc(Cl)cc1 [TCMDC-131807]				1 (1: YES)		370 nM	>25 µM	
CCN(CC)/C(=N/C(=N)Nc1ccc(Cl)cc1)NCCCCCCCCN/C(=N\C(=N)Nc1ccc(Cl)cc1)N(CC)CC [TCMDC-131812]				1 (1: YES)		1030 nM	>25 µM	
CCN(CC)/C(=N/C(=N)NCc1ccc(Cl)cc1)NCCCCCCN/C(=N\C(=N)NCc1ccc(Cl)cc1)N(CC)CC [TCMDC-131817]				1 (1: YES)		790 nM	>25 µM	
SC(=Nc1ccc2c(c1)OCCO2)NN=Cc1ccccn1 [TCMDC-132009]				0 (0: NO)	3.28 µM	830 nM	3.28 µM	
COc1ccc(CCNc2nc(NCc3ccccc3)c3cc(OC)c(OC)cc3n2)cc1OC [TCMDC-132017]				0 (0: NO)	4.58 µM	5600 nM	4.58 µM	
COc1cc2c(c(Cl)c1OC)CCN(C(=O)C(F)(F)F)CC2c1ccccc1 (centres unmarked) [TCMDC-132071]								Unified cytotox (HepG2 cells [1]; [9]): 25.00 µM; IC50 [2, 10]: 1950 nM; HepG2 cytoxicity (HepG2 cells [3]; [11]): >25 µM; Is compound selective in assay? Pf GC-ATP active? [4, 12]: 1 (1: YES)
Fc1ccc2[nH]c(-c3ccc(-c4ccc(CNCCN5CCNCC5)cc4)s3)nc2c1.O=C(O)C(F)(F)F [TCMDC-132869]								Unified cytotox (HepG2 cells [1]; [9]): 25.00 µM; IC50 [2, 10]: 530 nM; HepG2 cytoxicity (HepG2 cells [3]; [11]): >25 µM; Is compound selective in assay? Pf GC-ATP active? [4, 12]: 1 (1: YES)
Nc1ncc(-c2ccc3nccc(-c4ccncc4)c3c2)cc1S(=O)(=O)N1CCCCC1 [TCMDC-134265]								Unified cytotox (HepG2 cells [1]; [9]): 25.00 µM; IC50 [2, 10]: 2070 nM; HepG2 cytoxicity (HepG2 cells [3]; [11]): >25 µM; Is compound selective in assay? Pf GC-ATP active? [4, 12]: 1 (1: YES)
CCOc1c(CCNCCCCNCCc2ccc3ccccc3c2OCC)ccc2ccccc12.CS(=O)(=O)O [TCMDC-137759]								IC50 [2, 10]: 170 nM; HepG2 cytoxicity (HepG2 cells [3]; [11]): <1.56 µM; Is compound selective in assay? Pf GC-ATP active? [4, 12]: 1 (1: YES)
